Patent publication US11932654B2, “Nimbolide analogs as anti-cancer agents and preparation thereof” (priority 2018, dated 2024)

Legend:
[1] = system: DU-145 prostate cancer cell line; assay: In vitro anticancer activity, SRB assay, DU-145; type: cell-based; details: Homo sapiens, 48 h, NA = Not Active
Description: Cell culture: Human lung adenocarcinoma cell line (A549 cell line), pancreatic cancer cell line (Panc-1, Pan-02), prostate cancer cell line (DU145, PC3), Brest cancer cell line (MCF-7) was grown in DIEM (Dulbecco's modifications of eagle's medium with L-glutamine & 4.5 g/L glucose) supplemented with fetal bovine serum in a humidified atmosphere of a 5% CO2 at 37° C.
In vitro anticancer activity: Cells were harvested from exponential phase cultures by trypsinization, counted and plated in 96-well plate. Optimal seeding densities for different cell lines in each plate were 5000 cells per well. After 24 h cells were treated with \ the newly synthesized compound at a dose range of 0.1-100 μm final concentration. Thereafter, cells were allowed to grow for 48 h before determination of cell survival by the SRB assay. Then the cells were fixed with 10% cold trichloroacetic acid for 1 h at 4° C. After two washes with deionized water, fixed cells were stained with 50 μL of SRB solution (1% in acetic acid) for 30 min and subsequently washed twice with 1% acetic acid to remove unbound stain. The plates were left to dry at room temperature and bound stain was solubilized with 100 μL of 10 mM buffered Tris base for reading the […] at 540 nm.

[2] = system: caspase-9; assay: Caspase assay activity, caspase-9, Panc-1 cells; type: cell-based; details: fluorimetric assay, increasing concentrations
Description: Caspase assay activity: Caspase-3, caspase-8 and caspase-9 protease activities were determined using a commercial fluorescence assay kit according to the manufacturer's instructions, Briefly, pancreatic cancer cells were treated with different concentrations of IM-1372-Kn-13 for 24 h were re-suspended in 50 μL of chilled cell lysis buffer; cells were then incubated on ice for 10 min and centrifuged for 1 min in a micro-centrifuge (10,000 g). Then supernatants were transferred (cytosolic extract) to a fresh tube and protein concentration was assayed. Next, diluted 100 μg protein was added to 50 μL cell lysis buffer for each assay. Subsequently, 50 μL of 2× reaction buffer and 5 μL of the 4 mM Ac-DEVD AMC (caspase-3)/Ac-VETD-AMC (caspase-8)/[…] were added and incubated at 37° C. for 2 h (samples read at […] in a microtiter plate reader).

[3] = system: Pan-02 cells xenograft tumors; assay: Histopathological examination of tumors and organs of xenograft mice; type: in vivo, nude mice
Description: Establishment of Pancreatic cancer xenograft model: To establish tumor in mice, Pan-02 cells (7×10^6) were suspended in 1:1 RPMI medium mixed with matrigel and subcutaneously implanted on right flank of the each mice. The injection sites were examined daily for the appearance of tumors. On 10th day these animals were randomized and divided into 3 groups (6 mice in each group). Group I served as control group received 20% ethanol three times in a week. Test group animals in Group II and III received intratumoral injection of IM-1372-Kn-13 at 10 mg and 25 mg/kg body weight respectively three times in a week. All groups received 5 repeated doses in 12 days. Mice were weighed and tumor volumes were measured 3 times a week by Vernier caliper. Tumor volume in individual mice was calculated by the following formula. 0.5×L (W)^2, Where L is length, W is width of the tumor. The control group animals were euthanized when tumor volume is reached heavier to animal. One-week after completion of treatment period, the animals were sacrificed, and tumors were excised, fixed, and embedded in paraffin. At the end of treatment, blood samples were collected to perform clinical biochemistry.

Compound: COC(=O)C[C@H]1[C@]2(C)C3=C(C)[C@H](C4=CC5OC4C(C(=O)OC)=C5C(=O)OC)C[C@@H]3O[C@@H]2[C@@H]2OC(=O)[C@]3(C)C=CC(=O)[C@@]1(C)C23 (stereo partly drawn) [A4]
- IC50 [1]: 580 nM
- activity of caspase-9 [2]: increased significantly in a dose-dependent manner
- animals showing liver metastasis ([3]; printed 'group I' (control group: 50%)): 10 % of animals
- metastatic invasion in liver, kidney and spleen ([3]; printed 'group II'): no metastatic invasion was found
- liver metastasis in treated animals ([3]; treated xenograft animals vs control group): no liver metastasis
- effect on the other tissues of xenograft mice ([3]; xenograft mice, intratumoral): did not show any effect
